# Measured values taken from patent publication US6635293B2, “Finely dispersed carotenoid suspensions for use in foods and a process for their preparation” (Kemin Foods, L.C., priority 2001, dated 2003).
# Experiments:
# [1] = Optical clarity of model beverage system containing SFAE/carotenoid composition (% transmittance at 800 nm); type: physicochemical; conditions: liquid conc. product 20% L-1695 ester
# Description: (§1) Optical clarity was examined using SFAE/carotenoid liquid compositions in potable water and a model beverage system. The SFAE/carotenoid dry composition are used in a model beverage system. Liquid SFAE/carotenoid compositions were made by slowly mixing the appropriate weight percent of SFAE into the water until dissolved (Tables 2-5). At this point, the carotenoid was mixed into the SFAE/water mixture until evenly dispersed. The dry SFAE/lutein composition was prepared by removing the water from the liquid SFAE/lutein composition using a horizontal wiped film evaporator until the total moisture was less than 1%. These SFAE/carotenoid compositions were added either to potable water or to the model beverage system. The optical clarity was measured using a Hewlett Packard UV-Visible Spectrophotometer Model 8453. The instrument was blanked with water for the water trial and control beverage for the beverage trials. A quartz cuvette having a 1 cm path length is rinsed three times with the sample and then the transmittance at 800 nm is read from the spectrophotometer.
# [2] = system: age-related macular degeneration; conditions: consumption of lutein and zeaxanthin together; cited from earlier work
# [3] = Optical clarity of water containing SFAE/carotenoid composition (% transmittance at 800 nm); type: physicochemical; conditions: liquid conc. product 20% L-1695 ester
# Description: as §1
# [4] = Stability against ringing and settling of SFAE/carotenoid compositions in model beverage system; type: physicochemical; conditions: 3 mg carotenoid/8 fl. oz. serving, 20% SFAE/1% lycopene
# Excerpt: The objective of this experiment was to determine the stability of a sucrose fatty acid ester/carotenoid suspension in aqueous compositions. For the purposes of this discussion, stability will be defined as the resistance to produce a deposit of the carotenoid around the perimeter of the container in the region of the surface of the beverage (ringing). There are several factors that may affect the stability against ringing in aqueous compositions. It is possible that an optimal level of SFAE is required to keep the carotenoid in the suspension. The hydrophilic/lipophilic balance (HLB) of the SFAE may affect the interaction of the carotenoids with the aqueous composition. Additionally, the inclusion level of the SFAE/carotenoid suspension may determine the stability against ringing. […] These factors have been examined to determine whether there are optimal levels of SFAE and carotenoids that contribute to the stability against ringing. Stability against ringing was examined using SFAE/carotenoid liquid compositions in potable water and a model beverage system. The SFAE/carotenoid dry composition was used in a model beverage system. Liquid SFAE/carotenoid compositions were made by slowly mixing the appropriate weight percent of SFAE into the water until dissolved (Table 6). At this point the carotenoid was mixed into the SFAE/water mixture until evenly dispersed. […]
# [5] = 0.5 mg carotenoid/8 oz serving, 5% carotenoid
# [6] = 3.0 mg carotenoid/8 oz serving, 5% carotenoid
# [7] = 1.5 mg carotenoid/8 oz serving, 5% carotenoid
# [8] = 0.5 mg carotenoid/8 oz serving, 1% carotenoid
# [9] = 3.0 mg carotenoid/8 oz serving, 1% carotenoid
SMILES,"Optical Clarity [1, 5]","Optical Clarity [1, 6]",reduction in age-related macular degeneration [2],"Optical Clarity [3, 5]","Optical Clarity [3, 7]","Optical Clarity [3, 6]","Optical Clarity [1, 8]","Optical Clarity [1, 9]","Optical Clarity [3, 8]","Optical Clarity ([3]; 1.5 mg carotenoid/8 oz serving, 1% carotenoid)","Optical Clarity [3, 9]",settling (in words) [4]
"CC1=C(/C=C/C(C)=C/C=C/C(C)=C/C=C/C=C(C)/C=C/C=C(C)/C=C/C2=C(C)C[C@@H](O)CC2(C)C)C(C)(C)C[C@H](O)C1 [zeaxanthin, Zeaxanthin]",99.102 % transmittance at 800 nm,87.707 % transmittance at 800 nm,57%,98.213 % transmittance at 800 nm,95.692 % transmittance at 800 nm,94.110 % transmittance at 800 nm,–,–,–,–,–,–
"CC1=C[C@H](O)CC(C)(C)[C@H]1/C=C/C(C)=C/C=C/C(C)=C/C=C/C=C(C)/C=C/C=C(C)/C=C/C1=C(C)C[C@@H](O)CC1(C)C [lutein, Lutein]",97.609 % transmittance at 800 nm,83.017 % transmittance at 800 nm,57%,104.73 % transmittance at 800 nm,101.01 % transmittance at 800 nm,93.735 % transmittance at 800 nm,–,–,–,–,–,–
"CC1=C(/C=C/C(C)=C/C=C/C(C)=C/C=C/C=C(C)/C=C/C=C(C)/C=C/C2=C(C)CCCC2(C)C)C(C)(C)CCC1 [β-carotene, β-Carotene]",99.314 % transmittance at 800 nm,89.643 % transmittance at 800 nm,–,96.759 % transmittance at 800 nm,94.275 % transmittance at 800 nm,87.407 % transmittance at 800 nm,–,–,–,–,–,–
"CC(C)=CCC/C(C)=C/C=C/C(C)=C/C=C/C(C)=C/C=C/C=C(C)/C=C/C=C(C)/C=C/C=C(\C)CCC=C(C)C [lycopene, Lycopene]",–,–,–,–,–,–,94.934 % transmittance at 800 nm,50.180 % transmittance at 800 nm,97.989 % transmittance at 800 nm,88.387 % transmittance at 800 nm,72.401 % transmittance at 800 nm,considerable amount of settling
